The target of data set [1] is histone deacetylase (HeLa nuclear extracts). Nature of the data set: In vitro assay for inhibition of histone deacetylase. In kind it is biochemical. As to conditions: HeLa nuclear extracts 60 μg/ml, [3H]acetylated histone H4 peptide substrate, 30 min. As to the method: The in vitro assay for inhibition of histone deacetylase (see example C.1) measures the inhibition of HDAC enzymatic activity obtained with the compounds of formula (I).
HeLa nuclear extracts (supplier: Biomol) were incubated at 60 μg/ml with 2×10^−8 M of radiolabeled peptide substrate. As a substrate for measuring HDAC activity a synthetic peptide, i.e. the amino acids 14-21 of histone H4, was used. The substrate is biotinylated at the NH2-terminal part with a 6-aminohexanoic acid spacer, and is protected at the COOH-terminal part by an amide group and specifically [^3H]acetylated at lysine 16. The substrate, biotin-(6-aminohexanoic)Gly-Ala-([^3H]-acetyl-Lys-Arg-His-Arg-Lys-Val-NH2), was added in a buffer containing 25 mM Hepes, 1 M sucrose, 0.1 mg/ml BSA and 0.01% Triton X-100 at pH 7.4. After 30 min the deacetylation reaction was terminated by the addition of HCl and acetic acid. (final concentration […] respectively). After stopping the reaction, the free ^3H-acetate was extracted with ethylacetate. After mixing and centrifugation, the radioactivity in an aliquot of the upper (organic) phase was counted in β-counter.
For each experiment, controls (containing HeLa nuclear extract and DMSO without compound), a blank incubation (containing DMSO but no HeLa nuclear extract or compound) and samples (containing compound dissolved in DMSO and HeLa nuclear extract) were run in parallel. In first instance, compounds were tested at a concentration of 10^−5M. […] In each test the blank value was substracted from both the control and the sample values. The control sample represented 100% of substrate deactylation. For each sample the radioactivity was expressed as a percentage of the mean value of the controls. […] Herein the effects of test compounds are expressed as pIC50 (the negative log value of the IC50-value).

Data set [2] relates to A2780 ovarian carcinoma cells. Description: Antiproliferative activity on A2780 cells (MTT). In kind it is cell-based. To be noted: Homo sapiens, 96 h, four days of incubation, read-out: Cellular activity pIC50 (converted). As to the method: Cellular activity of the compounds of formula (I) was determined on A2780 tumour cells using a colorimetric assay for cell toxicity or survival (Mosmann Tim, Journal of Immunological Methods 65: 55-63, 1983)(see example C.2).
All compounds tested were dissolved in DMSO and further dilutions were made in culture medium. Final DMSO concentrations never exceeded 0.1% (v/v) in cell proliferation assays. Controls contained A2780 cells and DMSO without compound and blanks contained DMSO but no cells. MTT was dissolved at 5 mg/ml in PBS. A glycine buffer comprised of 0.1 M glycine and 0.1 M NaCl buffered to pH 10.5 with NaOH (1 N) was prepared (all reagents were from Merck).
The human A2780 ovarian carcinoma cells (a kind gift from Dr. T. C. Hamilton [Fox Chase Cancer Centre, Pennsylvania, USA]) were cultured in RPMI 1640 medium supplemented with 2 mM L-glutamine, 50 μg/ml gentamicin and 10% fetal calf serum. Cells were routinely kept as monolayer cultures at 37° C. in a humidified 5% CO2 atmosphere. Cells were passaged once a week using a trypsin/EDTA solution at a split ratio of 1:40. All media and supplements were obtained from Life Technologies. Cells were free of mycoplasma contamination as determined using the Gen-Probe Mycoplasma Tissue Culture kit (supplier: BioMérieux).
Cells were seeded in NUNC™ 96-well culture plates (Supplier: Life Technologies) and allowed to adhere to the plastic overnight. Densities used for plating were 1500 cells per well in a total volume of 200 μl medium. After cell adhesion to the plates, medium was changed and drugs and/or solvents were added to a final volume of 200 μl. Following four days of incubation, medium was replaced by 200 μl fresh medium and cell density and viability was assessed using an […] assay. To each well, 25 μl μl MTT solution was added and the cells were further incubated for 2 hours at 37° C. The medium was then carefully aspirated and the blue MT-formazan product was solubilized by addition of 25 μl glycine buffer followed by 100 μl of DMSO. […] Within an experiment, the results for each experimental condition are the mean of 3 replicate wells. For initial screening purposes, compounds were tested at a single fixed concentration of 10^−6 M. For active compounds, the experiments were repeated to establish full concentration-response curves. For each experiment, controls (containing no drug) and a blank incubation (containing no cells or drugs) were run in parallel. The blank value was subtracted from all control and sample values. For each sample, the mean value for cell growth (in absorbance units) was expressed as a percentage of the mean value for cell growth of the control. […] Herein the effects of test compounds are expressed as pIC50 (the negative log value of the IC50-value).

Where only a bound is given, the exact number is not on record here.

One may read the melting point as the temperature of the solid-liquid transition. Compound `O=C(NO)c1cnc(N2CCC(NS(=O)(=O)c3ccc4ccccc4c3)CC2)nc1N1CCN(S(=O)(=O)c2ccc3ccccc3c2)CC1` [Co. No. 6] returned a melting point of 80 °C. For the same compound, the “Enzyme activity pIC50” value in data set [1] is on record as <5. Besides, the IC50 in data set [2] was 2090 nM.
As for `O=C(NO)c1cnc(N2CCC(N(CCO)S(=O)(=O)c3ccc4ccccc4c3)CC2)nc1` [compound 34], the “Enzyme activity pIC50” value in data set [1] worked out at 7.337. Also, the IC50 in data set [2] is 2400 nM.
`O=C(NO)c1cnc(N2CCC(CNS(=O)(=O)c3ccc(-c4ccccc4)cc3)CC2)nc1` [compound 21]: the “Enzyme activity pIC50” value in data set [1] turned out to be 8.199. Also, the IC50 in data set [2] is 362 nM.
With `O=C(NO)c1cnc(N2CCC(CNS(=O)(=O)c3ccccc3-c3ccoc3)CC2)nc1` [compound 38], the “Enzyme activity pIC50” value in data set [1] came to 7.154. For the same compound, the IC50 in data set [2] is 1160 nM.
`O=C(NO)c1cnc(N2CCC(CNS(=O)(=O)N3CCOCC3)CC2)nc1` [Co. No. 28]: the melting point came to 217 °C. The “Enzyme activity pIC50” value in data set [1] is reported as 7.074. Further, in data set [2], the IC50 was 7780 nM.
Turning to `Cc1ccccc1-c1ccccc1S(=O)(=O)NCC1CCN(c2ncc(C(=O)NO)cn2)CC1` [compound 41], the “Enzyme activity pIC50” value in data set [1] came out at 7.403. For the same compound, the IC50 in data set [2] was 471 nM.
For the compound `O=C(NO)c1cnc(N2CCCC(NS(=O)(=O)c3ccc4ccccc4c3)CC2)nc1` (stereo not drawn) [compound 24], the “Enzyme activity pIC50” value in data set [1] is 7.903. Also, in data set [2], the IC50 was 1070 nM.
The compound `O=C(Nc1ccc(N2CCC(NS(=O)(=O)c3ccc(-c4ccccc4)cc3)CC2)cc1)/C(Cc1ccccc1)=N/O` [Co. No. 3] displayed a melting point of 262 °C. Moreover, in data set [1], the “Enzyme activity pIC50” value was <5. The IC50 in data set [2] was 1800 nM.
As for `COCCN(C1CCN(c2ncc(C(=O)NO)cn2)CC1)S(=O)(=O)c1ccc2ccccc2c1` [compound 35], the “Enzyme activity pIC50” value in data set [1] turned out to be 7.046. Moreover, the IC50 in data set [2] was 1160 nM.
Taken in the same sequence, the figures for `O=C(NO)c1ccc(N2CCC(NS(=O)(=O)c3ccc4ccccc4c3)C2)cc1` (stereo not drawn) [compound 16] were 6.293 and > 10000 nM.
Taken in the same sequence, the figures for `Cc1cc(C(=O)NO)ccc1N1CCC(NS(=O)(=O)c2ccc(-c3ccccc3)cc2)CC1` [compound 13] were 5.428 and 698 nM.
`CN(C1CCN(c2ncc(C(=O)NO)cn2)C1)S(=O)(=O)c1ccc2ccccc2c1` (stereo not drawn) [Co. No. 27] came in with a melting point of 158 °C. Besides, in data set [1], the “Enzyme activity pIC50” value was determined as 7.49. In data set [2], the IC50 was 1660 nM.
`O=C(NO)c1cnc(N2CCN(CCCNS(=O)(=O)c3ccc4ccccc4c3)CC2)nc1` (hydrate or solvate) [Co. No. 26] gave a melting point of 115 °C.
Regarding `O=C(NO)c1ccc(N2CCC(NS(=O)(=O)c3ccc4ccccc4c3)C2)nc1` (stereo not drawn) [compound 17], the “Enzyme activity pIC50” value in data set [1] is 6.95. The IC50 in data set [2] was > 10000 nM.
For the compound `O=C(NO)c1ccc(N2CCC(NS(=O)(=O)c3ccc4ccccc4c3)CC2)nc1` [compound 12], in data set [1], the “Enzyme activity pIC50” value came to 7.438. Besides, the IC50 in data set [2] was 2910 nM.
On the same counts, the results for `O=C(NO)c1cnc(N2CCN(CCNS(=O)(=O)c3ccc4ccccc4c3)CC2)nc1` [compound 32] are 7.526 and 556 nM.
With `O=C(NO)c1ccc(N2CCC(NS(=O)(=O)c3ccc(-c4ccccc4)cc3)CC2)cc1` [compound 14], in data set [1], the “Enzyme activity pIC50” value is 6.116. Besides, the IC50 in data set [2] is 2090 nM.
Take `O=C(NO)c1cnc(N2CCC(CNS(=O)(=O)c3ccccc3-c3ccsc3)CC2)nc1` [compound 40]: the “Enzyme activity pIC50” value in data set [1] is given as 7.273. In addition, the IC50 in data set [2] was 685 nM.
Consider `Cc1cc(C(=O)NO)ccc1N1CCC(NS(=O)(=O)c2ccc3ccccc3c2)CC1` [compound 11], for which the “Enzyme activity pIC50” value in data set [1] was determined as 5.829. Besides, the IC50 in data set [2] is 1640 nM.
Turning to `Cc1cccc(-c2ccccc2S(=O)(=O)NCC2CCN(c3ncc(C(=O)NO)cn3)CC2)c1` [compound 39], the “Enzyme activity pIC50” value in data set [1] was 7.126. Also, the IC50 in data set [2] is 885 nM.
In the case of `O=C(NO)c1ccc(N2CCCC(NS(=O)(=O)c3ccc4ccccc4c3)CC2)nc1` (stereo not drawn) [Co. No. 10], the melting point came to 142 °C. Further, the “Enzyme activity pIC50” value in data set [1] stood at 6.893. Moreover, the IC50 in data set [2] is 2120 nM.
With `O=C(Nc1ccc(N2CCC(NS(=O)(=O)c3ccc4ccccc4c3)CC2)cc1)/C(Cc1ccccc1)=N/O` [compound 19], the “Enzyme activity pIC50” value in data set [1] was <5. Moreover, in data set [2], the IC50 is 4300 nM.
For the compound `O=C(NO)c1ccc(N2CCC(NS(=O)(=O)c3ccc(-c4ccccc4)cc3)C2)nc1` (stereo not drawn) [compound 18], the “Enzyme activity pIC50” value in data set [1] amounted to 5.321. Moreover, in data set [2], the IC50 was 49.8 nM.
For `CN(C)c1ccc(-c2ccccc2S(=O)(=O)NCC2CCN(c3ncc(C(=O)NO)cn3)CC2)cc1` [compound 44], the “Enzyme activity pIC50” value in data set [1] came out at 7.432. The IC50 in data set [2] is 643 nM.
On to `O=C(NO)c1cnc(N2CCC(CNS(=O)(=O)c3ccccc3-c3cc4ccccc4o3)CC2)nc1` [compound 43], for which, in data set [1], the “Enzyme activity pIC50” value amounted to 7.469. Also, the IC50 in data set [2] was 738 nM.
Regarding `O=C(NO)c1ccc(N2CCC(NS(=O)(=O)c3ccc4ccccc4c3)CC2)cc1` [Co. No. 1], the “Enzyme activity pIC50” value in data set [1] was determined as 6.523. In addition, the IC50 in data set [2] is 5280 nM.
Consider `O=C(NO)c1cnc(N2CCC(CNS(=O)(=O)c3ccccc3-c3cccc(CO)c3)CC2)nc1` [compound 37], for which the “Enzyme activity pIC50” value in data set [1] turned out to be 7.341. Besides, the IC50 in data set [2] was 2180 nM.
`CN(C1CCN(c2ncc(C(=O)NO)cn2)CC1)S(=O)(=O)c1ccc2ccccc2c1` [Co. No. 29]: the melting point is > 260 °C. For the same compound, the “Enzyme activity pIC50” value in data set [1] stood at 7.04. In addition, in data set [2], the IC50 is 3720 nM.
Regarding `CS(=O)(=O)c1ccc(-c2ccccc2S(=O)(=O)NCC2CCN(c3ncc(C(=O)NO)cn3)CC2)cc1` [Co. No. 30], in data set [1], the “Enzyme activity pIC50” value is listed as 7.614. Further, the IC50 in data set [2] is 2140 nM.
Taken in the same sequence, the figures for `CO[C@@H]1CN(c2ncc(C(=O)NO)cn2)CC[C@@H]1NS(=O)(=O)c1ccc2ccccc2c1` [compound 23] were 6.662 and 3370 nM.
Regarding `O=C(NO)c1cnc(N2CCC(NS(=O)(=O)c3ccc4ccccc4c3)C2)nc1` (stereo not drawn) [compound 31], the “Enzyme activity pIC50” value in data set [1] is on record as 7.857. Moreover, in data set [2], the IC50 was 5960 nM.
As for `COc1cccc(-c2ccccc2S(=O)(=O)NCC2CCN(c3ncc(C(=O)NO)cn3)CC2)c1` [compound 42], the “Enzyme activity pIC50” value in data set [1] is listed as 7.584. For the same compound, the IC50 in data set [2] is 455 nM.
Taken in the same sequence, the figures for `O=C(NO)c1cnc(N2CCC(CNS(=O)(=O)c3ccccc3-c3ccc(CO)cc3)CC2)nc1` [compound 36] were 7.265 and 1050 nM.
With `O=C(NO)c1cnc(N2CCN(CCCNS(=O)(=O)c3ccc4ccccc4c3)CC2)nc1` [Co. No. 26], the “Enzyme activity pIC50” value in data set [1] is 7.85. Moreover, in data set [2], the IC50 is 546 nM.
Take `COc1ccc(-c2ccccc2S(=O)(=O)NCC2CCN(c3ncc(C(=O)NO)cn3)CC2)cc1` [compound 45]: in data set [1], the “Enzyme activity pIC50” value stood at 7.371. Moreover, in data set [2], the IC50 is 513 nM.

The values are drawn from patent US7767679B2, “Sulfonylamino-derivatives as novel inhibitors of histone deacetylase” (Janssen Pharmaceutica N.V., priority 2002, dated 2010).
